Data from patent US10980899B2, “Differential diagnosis” (GE Healthcare Limited, priority 2016, dated 2021).
Read-outs that look alike come from different tables or passages of the source.

Legend:
[1] = target: DAT (Homo sapiens, UniProt Q01959); conditions: without SSRI users, reference cerebellum
Text: For this retrospective study, a selection was made from a database of patients diagnosed with either PD, MSA or PSP and for whom a [^123I]FP-CIT-SPECT scan was available. Diagnoses of patients were verified using their medical records. Patients no longer receiving treatment or clinical follow-up were approached by letter and diagnoses were retrieved from their current attending neurologist. This procedure was approved by the local Medical Ethics Committee of the VUmc and all patients provided written informed consent. […] Prior to analysis of [^123I]FP-CIT-SPECT binding ratios (BR), MSA and PSP patients were manually age and gender-matched with 30 PD patients from a research database.
All patients received oral potassium perchlorate to block thyroid uptake of free radioactive iodide. [^123I]FP-CIT was injected intravenously 3 hours before image acquisition at an approximate dose of 185 MBq (specific activity >185 MBq/nmol; radiochemical purity >99%). Subjects were imaged using a dual-head gamma camera (E.Cam; Siemens. Munich. Germany) with a fan-beam collimator. 60×30 second views per head over a 180° orbit on a 128×128 pixel matrix were acquired resulting in a total imaging time of 30 minutes. Image reconstruction was performed using a filtered back projection with a Butterworth filter (order 8. cut-off 0.6 cycles/cm; voxel size: 3.9 mm^3 after reconstruction). Scans were reoriented manually to ensure that left and right striatum were aligned.
ROIs were defined for the DAT-rich caudate nucleus and the SERT-rich thalamus from the automated anatomical labelling (AAL) atlas; the DAT-rich posterior putamen was bilaterally based on the AAL atlas as described elsewhere (Vriend, C. et al. 2014 Mov Disord; 29: 904-11) the SERT-rich pons ROI was based on the Talairach Daemon (TD) Lobes atlas; and the SERT-rich hypothalamus ROI was based on the TD Brodmann area+atlas and 2× dilated. All of these ROIs are implemented in the WFU Pickatlas 3.0 (Wake Forest University, Winston-Salem, N.C., USA).
Non-specific [^123I]FP-CIT binding in the cerebellum was used as a reference (REF) (WFU Pickatlas, AAL atlas; bilateral Crus 2), because the cerebellum is relatively devoid of DAT and SERT. The ratio of specific to non-specific binding (BR), was calculated in Statistical Parametric Mapping Software version 8 (SPM8; Wellcome Trust Centre for Neuroimaging. London. UK) by: [(ROI−REF)/REF], and used as the outcome measure.
Patient analyses were grouped by diagnosis (PD; MSA-P; MSA-C; PSP). MSA was split, since a difference is expected between DAT binding in MSA-P and MSA-C (Munoz E., et al. 2011 J Neurol; 258: 2248-2253).
For the ROI analysis, normality of data was assessed by plotting histograms, examining Q-Q plots and Kolmogorov-Smirnov test for normality. One-way ANOVA tests were used where appropriate. Post-hoc testing was done with Hochberg GT2 correction. An alpha level of 0.05 was used.
ROI analysis in groups without SSRI users (total group n=48: MSA-C=7; MSA-P=6; PSP=10; PD=25)

[2] = target: T1, SERT (Homo sapiens, UniProt P31645); conditions: cited from earlier work
T1 construct: from tissue; host or cells: living patients' brain: hypothalamus, thalamus, pons (extrastriatal regions)

[3] = target: dopamine transporter (DAT) (Homo sapiens, UniProt Q01959); conditions: presynaptic membrane of dopaminergic neurons; cited from earlier work
[4] = target: T1, SERT; test: Voxel-based analysis of [123I]FP-CIT SPECT, extrastriatal binding; type: in vivo; conditions: groups without SSRI users
Experimental: All voxels in the [^123I]FP-CIT SPECT scan were adjusted by the mean binding in the cerebellar reference region according to: [(voxel−REF)/REF]. Voxel-based between-group analyses were performed in SPM8 and explicitly masked for the relevant ROI, using the same masks as the ROI analysis. Statistical threshold was set to P<0.05, Family-Wise Error (FWE) corrected for multiple comparisons, Ke>0. Age was included as nuisance covariate in all analyses.
Masks were based on the Automated anatomical labeling (AAL) atlas and created with the Wake-Forest University PickAtlas tool 3.0. Finally, the results of groups on SSRIs versus not being on a SSRI while scanned were compared with a ROI analysis.
Voxel-Based, Groups without SSRI Users, Extrastriatal Binding

[5] = target: T1, SERT; test: [123I]FP-CIT SPECT ROI analysis, extrastriatal (hypothalamus) binding ratios; type: in vivo; conditions: without SSRI users, reference cerebellum
Text: Diagnoses of patients were verified using their medical records. […]
One-way ANOVA tests were used where appropriate. Post-hoc testing was done with Hochberg GT2 correction. An alpha level of 0.05 was used.

[6] = target: serotonin transporter (SERT) (Homo sapiens, UniProt P31645); conditions: Abi-Dargham et al. 1996; cited from earlier work
Chain of serotonin transporter (SERT) (P31645 whole entry, species assumed): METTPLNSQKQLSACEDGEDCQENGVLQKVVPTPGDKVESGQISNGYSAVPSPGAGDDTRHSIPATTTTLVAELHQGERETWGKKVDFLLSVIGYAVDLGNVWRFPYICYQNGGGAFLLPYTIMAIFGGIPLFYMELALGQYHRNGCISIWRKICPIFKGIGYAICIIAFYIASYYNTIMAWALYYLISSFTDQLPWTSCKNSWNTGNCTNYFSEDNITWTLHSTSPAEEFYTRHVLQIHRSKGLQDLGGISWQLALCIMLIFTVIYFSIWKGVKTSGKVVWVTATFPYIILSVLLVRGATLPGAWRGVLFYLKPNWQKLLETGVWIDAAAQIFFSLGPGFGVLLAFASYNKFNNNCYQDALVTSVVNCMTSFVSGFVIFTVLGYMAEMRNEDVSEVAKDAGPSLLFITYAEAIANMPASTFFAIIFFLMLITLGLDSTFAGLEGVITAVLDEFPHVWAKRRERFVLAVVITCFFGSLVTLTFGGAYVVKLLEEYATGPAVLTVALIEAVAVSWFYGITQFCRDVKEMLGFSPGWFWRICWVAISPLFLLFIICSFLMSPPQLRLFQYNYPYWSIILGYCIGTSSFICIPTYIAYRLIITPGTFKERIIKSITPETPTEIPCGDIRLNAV

T1 sequence (P31645 whole entry): as the sequence (P31645 whole entry, species assumed) above
Chain of DAT (Q01959 whole entry): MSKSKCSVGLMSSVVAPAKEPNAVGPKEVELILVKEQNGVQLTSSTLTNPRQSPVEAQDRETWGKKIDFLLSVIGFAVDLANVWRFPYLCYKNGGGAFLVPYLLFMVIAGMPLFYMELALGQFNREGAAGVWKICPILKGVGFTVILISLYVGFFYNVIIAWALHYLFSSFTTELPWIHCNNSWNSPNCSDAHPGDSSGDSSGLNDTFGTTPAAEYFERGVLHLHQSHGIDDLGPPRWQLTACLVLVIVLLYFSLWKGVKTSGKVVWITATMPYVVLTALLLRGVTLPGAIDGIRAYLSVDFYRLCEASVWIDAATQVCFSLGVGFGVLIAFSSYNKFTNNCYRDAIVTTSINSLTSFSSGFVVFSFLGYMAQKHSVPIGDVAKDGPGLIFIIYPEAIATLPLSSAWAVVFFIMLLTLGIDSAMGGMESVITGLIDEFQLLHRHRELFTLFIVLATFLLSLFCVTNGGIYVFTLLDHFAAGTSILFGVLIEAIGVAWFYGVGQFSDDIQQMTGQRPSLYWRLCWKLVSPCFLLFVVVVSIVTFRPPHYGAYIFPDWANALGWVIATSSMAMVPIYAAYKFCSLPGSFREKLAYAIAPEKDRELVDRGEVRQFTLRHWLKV
Chain of dopamine transporter (DAT) (Q01959 whole entry, species assumed): as the sequence (Q01959 whole entry) above

COC(=O)[C@H]1[C@@H](c2ccc([123I])cc2)C[C@@H]2CC[C@H]1N2CCCF [[^123I]FP-CIT, [^123I]N-w-fluoropropyl-2β-carbomethoxy-3β-(4-iodophenyl) nortropane]
mean [123I]FP-CIT binding ratio, left caudate ([1]; MSA-C patients): 1.99
mean [123I]FP-CIT binding ratio, left posterior putamen ([1]; MSA-C patients): 2.12
mean [123I]FP-CIT binding ratio, right caudate ([1]; MSA-C patients): 2.16
mean [123I]FP-CIT binding ratio, right posterior putamen ([1]; MSA-C patients): 1.95
mean [123I]FP-CIT binding ratio, left posterior putamen ([1]; MSA-P patients): 1.36
mean [123I]FP-CIT binding ratio, right posterior putamen ([1]; MSA-P patients): 1.19
mean [123I]FP-CIT binding ratio, left caudate ([1]; PD patients): 1.87
mean [123I]FP-CIT binding ratio, left posterior putamen ([1]; PD patients): 1.58
mean [123I]FP-CIT binding ratio, right caudate ([1]; PD patients): 1.92
mean [123I]FP-CIT binding ratio, left caudate ([1]; PSP patients): 1.28
mean [123I]FP-CIT binding ratio, left posterior putamen ([1]; PSP patients): 1.29
mean [123I]FP-CIT binding ratio, right caudate ([1]; PSP patients): 1.39
hypothalamus binding, MSA-P and PSP vs PD ([2]; Joling et al. 2016): lower binding in the hypothalamus in MSA-P and PSP patients than in PD patients
midbrain binding, PSP vs PD ([2]; Roselli et al. 2010): lower in PSP patients than in PD patients
affinity to the dopamine transporter (DAT) [3]: high affinity
hypothalamus binding ratios, between-group comparison (voxel-based) ([4]; MSA-C vs PSP): higher binding ratios in hypothalamus in MSA-C than in PSP
hypothalamus binding, between-group comparison (voxel-based) ([4]; PD vs MSA-P or PSP): statistically significantly higher in PD than in MSA-P or PSP
mean hypothalamic [123I]FP-CIT binding ratio ([5]; MSA-C patients): 0.78
mean hypothalamic [123I]FP-CIT binding ratio ([5]; MSA-P patients): 0.45
mean hypothalamic [123I]FP-CIT binding ratio ([5]; PD patients): 0.67
mean hypothalamic [123I]FP-CIT binding ratio ([5]; PSP patients): 0.47
affinity for the serotonin transporter (SERT) [6]: modest affinity
